Results on ten molecules are retold here after patent US20130217702A1 (Richter Gedeon Nyrt., priority 2010, published 2013).

Assay [1] has as its target T1, recombinant human B1 receptors (Homo sapiens, UniProt P46663).
T1 construct: host or cells: CHO (CHO-B1)
T1 sequence (P46663 1-353): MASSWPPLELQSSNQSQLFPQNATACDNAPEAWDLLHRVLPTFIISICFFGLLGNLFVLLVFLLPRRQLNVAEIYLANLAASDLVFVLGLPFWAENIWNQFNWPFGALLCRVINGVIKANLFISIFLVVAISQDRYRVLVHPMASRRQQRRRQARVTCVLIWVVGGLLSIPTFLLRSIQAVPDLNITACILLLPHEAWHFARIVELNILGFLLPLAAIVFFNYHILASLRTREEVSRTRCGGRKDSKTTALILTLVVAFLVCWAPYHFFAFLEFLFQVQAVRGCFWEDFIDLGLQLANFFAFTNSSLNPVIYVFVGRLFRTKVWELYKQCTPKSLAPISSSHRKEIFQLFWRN
In words: Functional assay: antagonist potency by cytosolic calcium measurement (plate reader fluorimeter) in CHO-B1 cells, agonist LysDABK. The assay is classed as cell-based. As to conditions: CHO-B1 cells, inhibition of LysDABK (EC80)-evoked [Ca2+]i elevation; read-out: B1 func. The method in brief:
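IC50 is the concentration giving half-maximal inhibition of the LysDABK (EC80) calcium response, fitted from at least three experiments. CHO cells stably expressing human B1 were dye-loaded, exposed to compound for 20-25 min, then read by fluo-4 fluorescence (ΔF/F) at 37 °C.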

In assay [2] the target is T2, human recombinant bradykinin B1 receptor (Homo sapiens, UniProt P46663).
T2 construct: host or cells: CHO cells, clone hB1-A5
T2 sequence (P46663 1-353): T1 sequence (P46663 1-353)
In words: Human recombinant bradykinin B1 receptor competitive radioligand binding. The following applies: hB1 expressed in CHO cells, [3H]-[Des-Arg10] Kallidin radioligand; read-out: B1 binding. The method in brief:
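Membranes from CHO cells expressing hB1 (20 μg protein/tube) incubated 15 min at 25° C. with [3,4-prolyl-3,4-^3H(N)]-[Des-Arg^10] Kallidin; nonspecific binding defined with 10 μM Lys-des-Arg^9-Bradykinin. Bound label collected by filtration and counted. IC50 from ≥7-point curves in triplicate; Ki by Cheng-Prusoff.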

Structures can show the parent of a compound that is named as a salt. Bounds are passed on as bounds.

As to `Cc1nc(-c2c(Cl)c3ccccc3n2-c2ccc(CNC(=O)C3(NC(=O)c4conc4C)CC3)cc2)no1` [Example 181, 3-Methyl-isoxazole-4-carboxylic acid (1-{4-[3-chloro-2-(5-methyl-[1,2,4]oxadiazol-3-yl)-indol-1-yl]-benzylcarbamoyl}-cyclopropyl)-amide], in assay [1], the IC50 was less than 20 nM. In assay [2], the Ki is less than 20 nM.
For `Cc1nnc(-c2c(Cl)c3ccccc3n2-c2ccc(CNC(=O)C3(NC(=O)c4cnc5ccccc5c4)CC3)cc2)o1` [Example 182, Quinoline-3-carboxylic acid (1-{4-[3-chloro-2-(5-methyl-[1,3,4]oxadiazol-2-yl)-indol-1-yl]-benzylcarbamoyl}-cyclopropyl)-amide], the IC50 in assay [1] is less than 20 nM. The Ki in assay [2] is less than 20 nM.
With `Cc1nnc(-c2c(Cl)c3ccccc3n2-c2ccc(CNC(=O)C3(NC(=O)CC(F)(F)F)CC3)cc2)o1` [Example 183, 1-(3,3,3-Trifluoro-propionylamino)-cyclopropanecarboxylic acid 4-[3-chloro-2-(5-methyl-[1,3,4]oxadiazol-2-yl)-indol-1-yl]-benzylamide], the IC50 in assay [1] lay in the range of 20 to 100 nM. Besides, the Ki in assay [2] lay in the range of 20 to 100 nM.
As for `Cc1nnc(-c2c(Cl)c3ccccc3n2-c2ccc(CNC(=O)C3(NC(=O)c4cncnc4)CC3)cc2)o1` [Example 184, Pyrimidine-5-carboxylic acid (1-{4-[3-chloro-2-(5-methyl-[1,3,4]oxadiazol-2-yl)-indol-1-yl]-benzylcarbamoyl}-cyclopropyl)-amide], the IC50 in assay [1] was less than 20 nM. The Ki in assay [2] was less than 20 nM.
In the case of `Cc1ncc(C(=O)NC2(C(=O)NCc3ccc(-n4c(-c5noc(C)n5)c(Cl)c5ccccc54)cc3)CC2)cn1` [Example 185, 2-Methyl-pyrimidine-5-carboxylic acid (1-{4-[3-chloro-2-(5-methyl-[1,2,4]oxadiazol-3-yl)-indol-1-yl]-benzylcarbamoyl}-cyclopropyl)-amide], the IC50 in assay [1] is less than 20 nM. The Ki in assay [2] was less than 20 nM.
Turning to `Cc1nc(-c2c(Cl)c3ccccc3n2-c2ccc(CNC(=O)C3(NC(=O)c4cccc(N)c4)CC3)cc2)no1` [Example 186, 3-Amino-N-(1-{4-[3-chloro-2-(5-methyl-[1,2,4]oxadiazol-3-yl)-indol-1-yl]-benzylcarbamoyl}-cyclopropyl)-benzamide hydrochloride], the IC50 in assay [1] was less than 20 nM. In addition, the Ki in assay [2] was less than 20 nM.
Regarding `NC(=O)c1c(Cl)c2ccccc2n1-c1ccc(CNC(=O)C2(NC(=O)C(F)(F)F)CC2)cc1` [Example 187, 3-Chloro-1-[4-({[1-(2,2,2-trifluoro-acetylamino)-cyclopropanecarbonyl]-amino}-methyl)-phenyl]-1H-indole-2-carboxylic acid amide], in assay [1], the IC50 lay within 20 to 100 nM. Besides, in assay [2], the Ki lay in the range of 100 to 500 nM.
Turning to `COc1cc(C(=O)NC2(C(=O)NCc3ccc(-n4c(C(N)=O)c(Cl)c5ccccc54)cc3)CC2)on1` [Example 188, 3-Chloro-1-{4-[({1-[(3-methoxy-isoxazole-5-carbonyl)-amino]-cyclopropane-carbonyl}-amino)-methyl]-phenyl}-1H-indole-2-carboxylic acid amide], the IC50 in assay [1] is less than 20 nM. The Ki in assay [2] lay within 20 to 100 nM.
`Cc1nc(-c2c(Cl)c3cc(F)ccc3n2-c2ccc(CNC(=O)C3(NC(=O)C(F)(F)F)CC3)cc2)no1` [Example 189, 1-(2,2,2-Trifluoro-acetylamino)-cyclopropanecarboxylic acid 4-[3-chloro-5-fluoro-2-(5-methyl-[1,2,4]oxadiazol-3-yl)-indol-1-yl]-benzylamide]: the IC50 in assay [1] was less than 20 nM. In addition, in assay [2], the Ki was less than 20 nM.
`Cc1nc(-c2c(Cl)c3ccccc3n2-c2ccc([C@@H](C)NC(=O)C3(NC(=O)C(F)(F)F)CC3)c(F)c2)no1` [Example 190, 1-(2,2,2-Trifluoro-acetylamino)-cyclopropanecarboxylic acid ((R)-1-{4-[3-chloro-2-(5-methyl-[1,2,4]oxadiazol-3-yl)-indol-1-yl]-2-fluoro-phenyl}-ethyl)-amide]: the IC50 in assay [1] was less than 20 nM. In addition, the Ki in assay [2] was less than 20 nM.
